Data as given in patent US10174067B2, “Type of cytidine derivative and application thereof” (priority 2014, dated 2019).
Marks after values point to notes of the source that are not given here.

How the values were obtained:
[1] = system: HCT-116 colon cancer xenografts; experiment: Tumor growth inhibition of HCT-116 colon cancer xenografts in tumor-bearing nude mice (tumor volume, TGI %, RTV, T/C %); format: in vivo, Balb/c Nude mice; conditions: for T/C % (relative tumor proliferation rate): single-dose intraperitoneal, dosage mg/kg: G3, G4, G8 350, G5, G9 325, G6 300, G7 250;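 for T/C % (relative tumor proliferation rate): control C is the vehicle-treated model control group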
Procedure, shortened: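 Tumors in HCT-116-inoculated nude mice were sized three times weekly by diameter, with volume V=3/4π(D/2)^3. Significance set at P<0.05.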

[2] = Procedure, shortened: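 Test compounds formulated in ethanol:Cremophor EL:saline (5:5:90), vehicle alone as control, in HCT-116 subcutaneous xenografts in female Balb/c nudes (6/group, start 60–150 mm^3). Weight measured three times weekly, tumour weight at end; unpaired t-test on Mean±SEM data.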
[3] = system: ICR mice; experiment: in vivo; conditions: female ICR mice; single-dose ip
Procedure, shortened: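 MTD, the dose without mortality, body-weight loss over 10% from Day 0 or marked adverse signs, was found by stepwise up/down single intraperitoneal dosing of female SPF ICR mice. Vehicle: ethanol:Cremophor EL:saline 5:5:90. Animals weighed daily and clinically checked twice daily for up to 14 days.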

[4] = Day 0, G3-G9 groups, single IP dose, Mean±SEM
[5] = Day 4, G3-G9 groups, single IP dose, Mean±SEM
[6] = Day 6, G3-G9 groups, single IP dose, Mean±SEM
[7] = Day 8, G3-G9 groups, single IP dose, Mean±SEM
[8] = Day 11, G3-G9 groups, single IP dose, Mean±SEM
[9] = Day 13, G3-G9 groups, single IP dose, Mean±SEM
[10] = Day 15, G3-G9 groups, single IP dose, Mean±SEM
[11] = Day 18, G3-G9 groups, single IP dose, Mean±SEM
[12] = Day 20, G3-G9 groups, single IP dose, Mean±SEM
[13] = Day 22, G3-G9 groups, single IP dose, Mean±SEM

## CC(C)(C)OC(=O)Nc1ccn([C@@H]2O[C@H](CO)[C@@H](O)C2(F)F)c(=O)n1 [Compound G3, 4N-(t-butyloxycarbonyl)-2′deoxy-2′,2′-difluorocytidine]
[1]; [4]
  Day 0 (RTV): 1.00 ± 0.00
  Tumor volume, Day 0: 52.61 ± 13.58** mm^3
[1]; Day 0
  T/C % (relative tumor proliferation rate): 0.00%
[1]; Day 4, G3-G9 groups, single IP dose
  Day 4 (TGI %): 57.58%
[1]; [5]
  Day 4 (RTV): 1.72 ± 0.37
  Tumor volume, Day 4: 113.01 ± 44.54 mm^3
[1]; Day 4
  T/C % (relative tumor proliferation rate): 91.44%
[1]; Day 6, G3-G9 groups, single IP dose
  Day 6 (TGI %): 57.20%
[1]; [6]
  Day 6 (RTV): 3.21 ± 0.87
  Tumor volume, Day 6: 180.94 ± 66.04* mm^3
[1]; Day 6
  T/C % (relative tumor proliferation rate): 106.22%
[1]; Day 8, G3-G9 groups, single IP dose
  Day 8 (TGI %): 58.10%
[1]; [7]
  Day 8 (RTV): 3.91 ± 1.20
  Tumor volume, Day 8: 220.12 ± 86.80* mm^3
[1]; Day 8
  T/C % (relative tumor proliferation rate): 104.00%
[1]; Day 11, G3-G9 groups, single IP dose
  Day 11 (TGI %): 48.19%
[1]; [8]
  Day 11 (RTV): 7.44 ± 23.2
  Tumor volume, Day 11: 416.66 ± 160.05 mm^3
[1]; Day 11
  T/C % (relative tumor proliferation rate): 125.12%
[1]; Day 13, G3-G9 groups, single IP dose
  Day 13 (TGI %): 54.18%
[1]; [9]
  Day 13 (RTV): 8.92 ± 2.48
  Tumor volume, Day 13: 531.90 ± 203.98* mm^3
[1]; Day 13
  T/C % (relative tumor proliferation rate): 103.73%
[1]; Day 15, G3-G9 groups, single IP dose
  Day 15 (TGI %): 46.45%
[1]; [10]
  Day 15 (RTV): 13.32 ± 4.00
  Tumor volume, Day 15: 756.53 ± 280.79 mm^3
[1]; Day 15
  T/C % (relative tumor proliferation rate): 127.18%
[1]; Day 18, G3-G9 groups, single IP dose
  Day 18 (TGI %): 45.71%
[1]; [11]
  Day 18 (RTV): 17.04 ± 5.01
  Tumor volume, Day 18: 1004.83 ± 385.58 mm^3
[1]; Day 18
  T/C % (relative tumor proliferation rate): 123.71%
[1]; Day 20, G3-G9 groups, single IP dose
  Day 20 (TGI %): 41.37%
[1]; [12]
  Day 20 (RTV): 21.58 ± 6.58
  Tumor volume, Day 20: 1242.64 ± 464.52 mm^3
[1]; Day 20
  T/C % (relative tumor proliferation rate): 136.12%
[1]; [13]
  Day 22 (RTV): 24.39 ± 7.52
  Tumor volume, Day 22: 1390.74 ± 510.70 mm^3
[1]; Day 22
  T/C % (relative tumor proliferation rate): 125.42%
[1]; day of maximum: G3 Day 8, G4 Day 11, G5 Day 11, G9 Day 4, G7 Day 8, single IP
  maximum value of TGI %: 58.10%
[2]; [4]
  Weight change rate, Day 0: 0.00 ± 0.00%
  Weight of mice, Day 0: 20.47 ± 0.42 g
[2]; [5]
  Weight change rate, Day 4: 3.13 ± 1.03 %
  Weight of mice, Day 4: 21.10 ± 0.41 g
[2]; [6]
  Weight change rate, Day 6: 4.36 ± 0.88%
  Weight of mice, Day 6: 21.35 ± 0.39 g
[2]; [7]
  Weight change rate, Day 8: 2.86 ± 2.28%
  Weight of mice, Day 8: 21.03 ± 0.52 g
[2]; [8]
  Weight change rate, Day 11: 4.67 ± 0.64%
  Weight of mice, Day 11: 21.43 ± 0.56 g
[2]; [9]
  Weight change rate, Day 13: 6.20 ± 0.88 %
  Weight of mice, Day 13: 21.75 ± 0.60 g
[2]; [10]
  Weight change rate, Day 15: 3.40 ± 1.34%
  Weight of mice, Day 15: 21.18 ± 0.66 g
[2]; [11]
  Weight change rate, Day 18: 2.66 ± 1.40%
  Weight of mice, Day 18: 21.03 ± 0.68 g
[2]; [12]
  Weight change rate, Day 20: 2.40 ± 1.27%
  Weight of mice, Day 20: 20.98 ± 0.68 g
[2]; [13]
  Weight change rate, Day 22: 3.33 ± 2.34%
  Weight of mice, Day 22: 21.17 ± 0.77 g
[2]; Day 22, single IP dose (mg/kg)
  Day 22 Mortality: 0%
[2]; after single IP dose, compared with model control group
  clinical symptoms: no significant differences in clinical symptoms
[3]
  dose that could be tolerated (maximum tolerated dose, MTD): 350 mg/kg
